Results taken from US20240025893A1, “PYRIMIDINE-AND NITROGEN-CONTAINING BICYCLIC COMPOUND” (Asahi Kasei Pharma Corporation, priority 2020, published 2024).

Tests used:
[1] = tested on: LPS-stimulated TNFα production in THP-1 cells; experiment: LPS-stimulated TNFα production inhibition test using human acute monocytic leukemia cell strain THP-1; assay type: cell-based; conditions: Homo sapiens, THP-1, 4 h, LPS 2.5 ng/mL, average values
Summary of the method: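 Readout was HTRF-measured TNFα in supernatants, calibrated against a standard curve, after LPS challenge (2.5 ng/mL final, 4 h) of THP-1 cells pretreated 1 h at 37 °C with compound. Unstimulated wells defined 100% suppression and vehicle wells 0%. IC50 was fitted with a 4-parameter logistic model.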

human IRAK-4 = human IRAK-4 (Homo sapiens (Human), UniProt Q9NWZ3); experiment: Measurement of human IRAK-4 inhibitory activity (TR-FRET, peptide substrate phosphorylation, 10 μM ATP); assay type: biochemical; conditions: 1 nM IRAK-4, 10 μM ATP, 23° C., 30 minutes; average values
Summary of the method: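 With 1 nM IRAK-4, 0.5 μM biotinylated peptide and 10 μM ATP, compound incubated 30 min at 23 °C in 50 mM HEPES pH 7.2 with Mg2+/Mn2+. Stopped with EDTA plus europium-cryptate anti-phosphopeptide antibody and streptavidin-XL665, 60 min at 23 °C. Activity taken as the 665/620 nm TR-FRET ratio.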

Chain of human IRAK-4 (Q9NWZ3 whole entry): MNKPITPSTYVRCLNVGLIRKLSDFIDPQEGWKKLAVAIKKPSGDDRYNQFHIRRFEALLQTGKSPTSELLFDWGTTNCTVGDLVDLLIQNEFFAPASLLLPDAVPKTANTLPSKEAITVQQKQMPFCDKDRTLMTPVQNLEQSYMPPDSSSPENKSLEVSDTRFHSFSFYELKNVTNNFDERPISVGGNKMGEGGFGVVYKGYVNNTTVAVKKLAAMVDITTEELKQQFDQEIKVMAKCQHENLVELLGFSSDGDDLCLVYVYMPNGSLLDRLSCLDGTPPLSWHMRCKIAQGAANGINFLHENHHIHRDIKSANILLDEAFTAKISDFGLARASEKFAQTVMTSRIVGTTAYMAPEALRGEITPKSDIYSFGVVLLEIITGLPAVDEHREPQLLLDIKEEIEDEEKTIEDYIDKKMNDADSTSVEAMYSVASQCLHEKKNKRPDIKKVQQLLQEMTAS

| IC50 [1] | IC50 (human IRAK-4) | SMILES |
| --- | --- | --- |
| 207 nM | 6.33 nM | CCOc1c(-c2cnc(CO[C@H]3CCC[C@@H]3O)nc2)ccc2nc(NC(=O)C3CC3)sc12 [c-04-02] |
| 184 nM | 12.4 nM | COCCOc1c(-c2cnc(CO[C@H]3CCC[C@@H]3O)nc2)ccc2nc(NC(=O)C3CC3)sc12 [c-04-03] |
| 233 nM | 5.48 nM | CN1CC(F)(COc2c(-c3cnc(CO[C@H]4CCC[C@@H]4O)nc3)ccc3nc(NC(=O)C4CC4)sc23)C1 [c-05-01, N-(7-((3-Fluoro-1-methylazetidin-3-yl)methoxy)-6-(2-((((1S,2S)-2-hydroxycyclopentyl)oxy)methyl)pyrimidin-5-yl)benzo[d]thiazol-2-yl)cyclopropanecarboxamide] |
| 358 nM | 5.45 nM | O=C(Nc1nc2ccc(-c3cnc(CO[C@H]4CCC[C@@H]4O)nc3)c(OCCO)c2s1)C1CC1 [c-06-01, N-(6-(2-((((1S,2S)-2-Hydroxycyclopentyl)oxy)methyl)pyrimidin-5-yl)-7-(2-hydroxyethoxy)benzo[d]thiazol-2-yl)cyclopropanecarboxamide] |
| 317 nM | 10.7 nM | O=C(Nc1nc2ccc(-c3cnc(CO[C@H]4CCC[C@@H]4O)nc3)c(OCc3nccs3)c2s1)C1CC1 [c-06-02] |
| 277 nM | 17.1 nM | O=C(Nc1nc2ccc(-c3cnc(CO[C@H]4CCC[C@@H]4O)nc3)c(OC[C@H]3CCOC3)c2s1)C1CC1 [c-06-03] |
| 347 nM | 6.48 nM | Cc1c(-c2cnc(CO[C@H]3CCC[C@@H]3O)nc2)ccc2nc(NC(=O)C3CC3)sc12 [c-07-01] |
| 85 nM | 1.31 nM | C[C@@H]1C[C@H]1C(=O)Nc1nc2ccc(-c3cnc(CO[C@H]4CCC[C@@H]4O)nc3)cc2s1 [d-01-01, (1R,2R)—N-(6-(2-((((1S,2S)-2-Hydroxycyclopentyl)oxy)methyl)pyrimidin-5-yl)benzo[d]thiazol-2-yl)-2-methylcyclopropane-1-carboxamide] |
| 165 nM | 2.75 nM | C[C@]1(O)C[C@@H](C(=O)Nc2nc3ccc(-c4cnc(CO[C@H]5CCC[C@@H]5O)nc4)cc3s2)C1 [d-01-02] |
| 175 nM | 2.16 nM | CO[C@]1(C)C[C@H](C(=O)Nc2nc3ccc(-c4cnc(CO[C@H]5CCC[C@@H]5O)nc4)cc3s2)C1 [d-01-03] |
| 178 nM | 6.39 nM | CC(C)(C)OC(=O)N1CC2(CC(C(=O)Nc3nc4ccc(-c5cnc(CO[C@H]6CCC[C@@H]6O)nc5)cc4s3)C2)C1 [d-01-04] |
| 101 nM | 2.07 nM | O=C(Nc1nc2ccc(-c3cnc(CO[C@H]4CCC[C@@H]4O)nc3)cc2s1)C1CC2(CCOCC2)C1 [d-01-05] |
| 174 nM | 3.62 nM | O=C(Nc1nc2ccc(-c3cnc(CO[C@H]4CCC[C@@H]4O)nc3)cc2s1)C1CC2(C1)CC(F)(F)C2 [d-01-06] |
| 184 nM | 1.75 nM | O=C(Nc1nc2ccc(-c3cnc(CO[C@H]4CCC[C@@H]4O)nc3)cc2s1)C1CC2(COC2)C1 [d-01-07] |
| 202 nM | 2.89 nM | C[C@]1(F)C[C@H](C(=O)Nc2nc3ccc(-c4cnc(CO[C@H]5CCC[C@@H]5O)nc4)cc3s2)C1 [d-01-08] |
| 67 nM | 1.38 nM | CC(=O)N1CCC2(CC1)CC(C(=O)Nc1nc3ccc(-c4cnc(CO[C@H]5CCC[C@@H]5O)nc4)cc3s1)C2 [d-03-01, 7-Acetyl-N-(6-(2-((((1S,2S)-2-hydroxycyclopentyl)oxy)methyl)pyrimidin-5-yl)benzo[d]thiazol-2-yl)-7-azaspiro[3,5]nonane-2-carboxamide] |
| 93 nM | 2.52 nM | CC(C)C(=O)N1CCC2(CC1)CC(C(=O)Nc1nc3ccc(-c4cnc(CO[C@H]5CCC[C@@H]5O)nc4)cc3s1)C2 [d-03-05] |
| 125 nM | 0.849 nM | O=C(Nc1nc2ccc(-c3cnc(CO[C@H]4CCC[C@@H]4O)nc3)cc2s1)C1CC2(CCN(C(=O)c3ccccn3)CC2)C1 [d-03-06] |
| 139 nM | 0.852 nM | O=C(Nc1nc2ccc(-c3cnc(CO[C@H]4CCC[C@@H]4O)nc3)cc2s1)C1CC2(CCN(C(=O)c3cccnc3)CC2)C1 [d-03-07] |
| 137 nM | 1.28 nM | O=C(Nc1nc2ccc(-c3cnc(CO[C@H]4CCC[C@@H]4O)nc3)cc2s1)C1CC2(CCN(CC(F)(F)F)CC2)C1 [d-03-08] |
| 158 nM | 1.47 nM | O=C(Nc1nc2ccc(-c3cnc(CO[C@H]4CCC[C@@H]4O)nc3)cc2s1)C1CC2(CCN(C(=O)C3COC3)CC2)C1 [d-03-09] |

| IC50 [1] | IC50 (human IRAK-4) | SMILES |
| --- | --- | --- |
| 182 nM | 2.1 nM | CCO[C@H]1C[C@@H](C(=O)Nc2nc3ccc(-c4cnc(CO[C@H]5CCC[C@@H]5O)nc4)cc3s2)C1 [d-04-01, (1s,3s)-3-Ethoxy-N-(6-(2-((((1S,2S)-2-hydroxycyclopentyl)oxy)methyl)pyrimidin-5-yl)benzo[d]thiazol-2-yl)cyclobutane-1-carboxamide] |
| 207 nM | 2.48 nM | COCCO[C@H]1C[C@@H](C(=O)Nc2nc3ccc(-c4cnc(CO[C@H]5CCC[C@@H]5O)nc4)cc3s2)C1 [d-04-02] |
| 162 nM | 2.22 nM | CCCO[C@H]1C[C@@H](C(=O)Nc2nc3ccc(-c4cnc(CO[C@H]5CCC[C@@H]5O)nc4)cc3s2)C1 [d-04-03] |
| 145 nM | 2.05 nM | O=C(Nc1nc2ccc(-c3cnc(CO[C@H]4CCC[C@@H]4O)nc3)cc2s1)[C@H]1C[C@@H](OCc2ccncc2)C1 [d-04-05] |
| 182 nM | 1.51 nM | CN(C)CC1CC(C(=O)Nc2nc3ccc(-c4cnc(CO[C@H]5CCC[C@@H]5O)nc4)cc3s2)C1 (stereo partly drawn) [d-05-01, 3-((Dimethylamino)methyl)-N-(6-(2-((((1S,2S)-2-hydroxycyclopentyl)oxy)methyl)pyrimidin-5-yl)benzo[d]thiazol-2-yl)cyclobutane-1-carboxamide] |
| 223 nM | 2.1 nM | O=C(Nc1nc2ccc(-c3cnc(CO[C@H]4CCC[C@@H]4O)nc3)cc2s1)C1CC(CN2CC(F)C2)C1 (stereo partly drawn) [d-05-02] |
| 279 nM | 2.89 nM | O=C(Nc1cc2cc(-c3cnc(CO[C@H]4CCC[C@@H]4O)nc3)ccn2n1)C1CC1 [e-01-01, N-(5-(2-((((1S,2S)-2-hydroxycyclopentyl)oxy)methyl)pyrimidin-5-yl)pyrazolo[1,5-a]pyridin-2-yl)cyclopropanecarboxamide] |
| 225 nM | 2.48 nM | O=C(Nc1cc2cc(-c3cnc(CO[C@H]4CCC[C@@H]4O)nc3)ccn2n1)[C@@H]1C[C@H]1F [e-01-02] |
| 171 nM | 1.03 nM | C[C@@H]1C[C@H]1C(=O)Nc1cc2cc(-c3cnc(CO[C@H]4CCC[C@@H]4O)nc3)ccn2n1 [e-01-03] |
| 77 nM | 1.43 nM | Cc1cc(C(=O)N2CCN([C@H]3C[C@@H](C(=O)Nc4cc5cc(-c6cnc(CO[C@H]7CCC[C@@H]7O)nc6)ccn5n4)C3)[C@@H](C)C2)ccn1 [e-02-01, (1R,3s)-N-(5-(2-((((1S,2S)-2-Hydroxycyclopentyl)oxy)methyl)pyrimidin-5-yl)pyrazolo[1,5-a]pyridin-2-yl)-3-((S)-2-methyl-4-(2-methylisonicotinoyl)piperazin-1-yl)cyclobutane-1-carboxamide] |
| 123 nM | 1.38 nM | C[C@H]1CN(C(=O)c2cccnc2)CCN1[C@H]1C[C@@H](C(=O)Nc2cc3cc(-c4cnc(CO[C@H]5CCC[C@@H]5O)nc4)ccn3n2)C1 [e-02-02] |
| 67 nM | 2.23 nM | C[C@H]1CN(C(=O)c2ccc(C(F)(F)F)nc2)CCN1[C@H]1C[C@@H](C(=O)Nc2cc3cc(-c4cnc(CO[C@H]5CCC[C@@H]5O)nc4)ccn3n2)C1 [e-02-03] |
| 116 nM | 1.05 nM | C[C@H]1CN(CC(F)(F)F)CCN1[C@H]1C[C@@H](C(=O)Nc2cc3cc(-c4cnc(CO[C@H]5CCC[C@@H]5O)nc4)ccn3n2)C1 [e-02-04] |
| 123 nM | 1.14 nM | CCC(=O)N1CCN([C@H]2C[C@@H](C(=O)Nc3cc4cc(-c5cnc(CO[C@H]6CCC[C@@H]6O)nc5)ccn4n3)C2)[C@@H](C)C1 [e-02-05] |
| 113 nM | 1.3 nM | C[C@H]1CN(C(=O)C2CCC2)CCN1[C@H]1C[C@@H](C(=O)Nc2cc3cc(-c4cnc(CO[C@H]5CCC[C@@H]5O)nc4)ccn3n2)C1 [e-02-06] |
| 152 nM | 1.33 nM | CC(C)C(=O)N1CCN([C@H]2C[C@@H](C(=O)Nc3cc4cc(-c5cnc(CO[C@H]6CCC[C@@H]6O)nc5)ccn4n3)C2)[C@@H](C)C1 [e-02-07] |
| 165 nM | 1.32 nM | CC(=O)N1CCN([C@H]2C[C@@H](C(=O)Nc3cc4cc(-c5cnc(CO[C@H]6CCC[C@@H]6O)nc5)ccn4n3)C2)[C@@H](C)C1 [e-02-08] |
| 65 nM | 1.09 nM | C[C@H]1CN(C(=O)c2ccccc2)CCN1[C@H]1C[C@@H](C(=O)Nc2cc3cc(-c4cnc(CO[C@H]5CCC[C@@H]5O)nc4)ccn3n2)C1 [e-02-09] |
| 131 nM | 1.09 nM | C[C@H]1CN(C(=O)C2CC2)CCN1[C@H]1C[C@@H](C(=O)Nc2cc3cc(-c4cnc(CO[C@H]5CCC[C@@H]5O)nc4)ccn3n2)C1 [e-02-10] |
| 95 nM | 1.04 nM | CC(C)[C@H]1COCCN1[C@H]1C[C@@H](C(=O)Nc2cc3cc(-c4cnc(CO[C@H]5CCC[C@@H]5O)nc4)ccn3n2)C1 [e-02-11] |

| SMILES | IC50 [1] | IC50 (human IRAK-4) |
| --- | --- | --- |
| CC(C)(C)O[C@H]1C[C@@H](C(=O)Nc2nc3ccc(-c4cnc(CO[C@H]5CCC[C@@H]5O)nc4)cc3s2)C1 [d-02-01, (1s,3s)-3-(tert-Butoxy)-N-(6-(2-((((1S,2S)-2-hydroxycyclopentyl)oxy)methyl)pyrimidin-5-yl)benzo[d]thiazol-2-yl)cyclobutane-1-carboxamide] | 77 nM | 1.83 nM |
